# Experimental data as given in a melting point compilation (Tetko et al.).
row,melting point [°C],SMILES
1,150,Cc1cccc(NC(=O)c2ccccc2C(=O)O)c1
2,207,O=C1C=CC(=O)N1c1ccc(Nc2ccccc2)c2ccccc12
3,194,CS(=O)(=O)Nc1ccc(C#N)cc1
4,132,CC(Cc1ccccc1)(C(=O)O)C(=O)O
5,34 to 36,COC(=O)[C@H](Cc1ccccc1)N=C=S
6,30,O=C1CCc2ccccc2CC1
7,233,CC(C)(C)C(=O)OCC(=O)C1(O)CCC2C3CCC4=CC(=O)C=CC4(C)C3C(O)CC21C (centres undefined)
8,97,CC(C)(C)C(=O)CS(=O)(=O)c1ccc(Cl)cc1
9,188,S=C(Nc1ccccc1)N1CC(c2ccccc2)CC1c1ccccc1 (centres undefined)
10,180,Nc1c(S/C=C/Cl)ccc2c1C(=O)c1ccccc1C2=O
11,276,CC(=O)NC1=NC(=O)C(=Cc2coc3ccc(Cl)cc3c2=O)N1C
12,123 to 126,O=C1OC(=O)c2c(Cl)cccc21
13,134 to 136,CC(=O)Nc1ccc(I)cc1C(F)(F)F
14,134,CN(C)c1ccc(N=C2C=CC(=O)C=C2)cc1
15,254,COc1cccc(C=Cc2cc(C=Cc3cccc(OC)c3O)c([N+](=O)[O-])cc2[N+](=O)[O-])c1O
16,271,CN(C)c1ccc(C2C3=C(CC(C)(C)CC3=O)Nc3c2ccc2ccccc32)cc1 (centres undefined)
17,332 to 334,N#CC(C#N)=C(C(=O)Cc1ccccc1)c1ccc([N+](=O)[O-])cc1
18,234,COc1cc2c(cc1OC)CN1C(=O)C(C)NC(=O)C1C2 (centres undefined)
19,160 to 161,O=C(O)/C(=C/c1cccc2ccccc12)c1ccccc1
20,174 to 177,NC(c1cccc2ccccc12)C(N)c1cccc2ccccc12 (centres undefined)
21,162 to 164,Fc1cccc(-n2cc[nH]c2=S)c1
22,129,Cc1c(C)c2c3ccccc3ccc2c2ccccc12
23,115,Cc1ccccc1NC(=O)c1cnc(C(C)(C)C)c(Cl)n1
24,72.5,O=S(=O)(O)c1ccc(-c2ccc(S(=O)(=O)O)cc2)cc1
25,154,NC(=O)c1ccccc1OC(F)(F)F
26,176,O=C(C1=NOC2C(=O)N(c3ccccc3[N+](=O)[O-])C(=O)C12)c1ccc2ccccc2c1 (centres undefined)
27,187,Clc1ccc(-c2csc(N3N=C(c4cnccn4)CC3c3ccc4c(c3)OCO4)n2)cc1 (centres undefined)
28,164 to 165,COc1ccc(C2c3cc(OC)c(OC)cc3CCN2C(C)=O)cc1OC (centres undefined)
29,90,O=C(O)Cc1ccc(Cl)c(Cl)c1

# More lines, now with the values behind:
row,SMILES,melting point [°C]
1,CCCCOC(=O)c1ccccc1C(=O)O,73.5
2,C=C1CC1CC(N)C(=O)O (centres undefined),282
3,Cc1ncc(COP(=O)(O)O)c(C=O)c1O,255
4,CC(=O)NC(CC(=O)O)C(=O)O (centres undefined),138
5,O=C(O)C(O)C(Cl)(Cl)Cl (centres undefined),125
6,Cc1nc(Br)ccc1Br,38
7,Cc1cccnc1C,-17
8,CC(=O)N1CCC[C@H]1C(=O)O,118
9,COc1ccc(O)c(F)c1F,105
10,O=[N+]([O-])C=Cc1cc(Cl)ccc1O,148 to 154
11,CCC(C)(C)C(C)(C)O,-1
12,COc1cc(CC#N)c(OC)cc1CC#N,198 to 200
13,CCOC(=O)C(CSC(=O)C(C)(C)Br)NC(C)=O (centres undefined),> 20
14,Cc1cc(C)n(C(=O)CC#N)n1,120
15,O=C(O)c1ccc(F)c(F)c1F,141
16,O=c1c2c(oc3c1CCCC3)CCCC2,130
17,O=C(C1CCCNC1)N1CCCC1 (centres undefined),57 to 64
18,Nc1nc(=O)[nH]cc1F,296
19,COc1cscc1C(=O)O,105 to 108
20,c1coc(CSSCc2ccco2)c1,10
